Non-standard residues stand in square brackets, D forms with d. Residues, ends and D or L forms follow the SMILES beside them. No end group written: not given here. Phe(4-Cl) = N[C@@H](Cc1ccc(Cl)cc1)C(=O)O; Cha = N[C@@H](CC1CCCCC1)C(=O)O; Nle = CCCC[C@H](N)C(=O)O
biological target: T1, APJ (Homo sapiens, UniProt P35414); assay: Suppression activity on forskolin stimulated cAMP production; type: cell-based; conditions: suppression of cAMP production stimulated with 1 µM forskolin; CHO-A10 clone cells; 37°C for 30 minutes; cAMP EIA
T1 construct: expressed in transfected cells; host or cells: CHO cells (CHO-A10 clone)
T1 sequence (P35414 1-380): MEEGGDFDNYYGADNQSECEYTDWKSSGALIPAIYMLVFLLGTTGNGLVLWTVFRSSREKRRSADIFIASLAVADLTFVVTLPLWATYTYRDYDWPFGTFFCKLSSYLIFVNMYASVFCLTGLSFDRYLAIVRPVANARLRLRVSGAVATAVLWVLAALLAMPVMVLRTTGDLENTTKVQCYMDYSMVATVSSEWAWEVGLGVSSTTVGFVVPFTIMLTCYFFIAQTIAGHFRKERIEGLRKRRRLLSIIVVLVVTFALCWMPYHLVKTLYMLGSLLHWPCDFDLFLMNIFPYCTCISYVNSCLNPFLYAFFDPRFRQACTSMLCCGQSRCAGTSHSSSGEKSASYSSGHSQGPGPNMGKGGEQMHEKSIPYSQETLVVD
Procedure: Subsequently, after washing with 500 µl of the assay buffer once, 500 µl each of the sample dissolved in the assay buffer added with 1 µM of forskolin were put into each well to incubate at 37°C for 30 minutes. Wells incubated with assay buffer added with no forskolin were prepared to know the basic cAMP production of cells (basal level), and similarly, wells incubated with assay buffer added with forskolin were also prepared to know the maximum cAMP production with stimulation of foskolin (maximum level). After completion of incubation, each well was washed with 500 µl of the assay buffer once, added with 500 µl of the lysis buffer IB included in the cAMP EIA system (Amersham Pharmacia Biotech) and extraction of cAMP was carried out. Following the prescription for the kit, a portion of 100 µl each of the extracts was used to assay. The level of suppression activity on cAMP production was calculated by taking the difference between the maximum level and cAMP in the wells that was added with a sample (amount of the suppression of cAMP production), and by taking it as a percentage relative to the increased production (difference between maximum level and basal level) in cAMP associated with forskolin stimulation, and EC50 was determined based on the dose response curve.

Compound	EC50
CCCC[C@H](NC(=O)[C@@H]1CCCN1C(=O)CNC(=O)[C@H](CCCCN)NC(=O)[C@H](Cc1c[nH]cn1)NC(=O)[C@H](CO)NC(=O)[C@H](CC(C)C)NC(=O)[C@H](CCCNC(=N)N)NC(=O)[C@@H]1CCCN1C(=O)[C@H](CCCNC(=N)N)NC(=O)[C@H](CCC(N)=O)NC(=O)[C@H](CCCNC(=N)N)NC(=O)[C@H](CCCNC(=N)N)NC(=O)[C@H](Cc1ccccc1)NC(=O)[C@H](CCCCN)NC(=O)[C@H](CCCNC(=N)N)NC(=O)[C@H](CCCNC(=N)N)NC(=O)CNC(=O)CNC(=O)[C@H](CCC(N)=O)NC(=O)[C@H](Cc1c[nH]c2ccccc12)NC(=O)[C@@H]1CCCN1C(=O)CNC(=O)[C@@H]1CCCN1C(=O)CNC(=O)[C@H](CC(N)=O)NC(=O)[C@H](CCCNC(=N)N)NC(=O)[C@H](CO)NC(=O)CNC(=O)[C@H](CCCNC(=N)N)NC(=O)[C@@H]1CCCN1C(=O)[C@H](CCC(N)=O)NC(=O)[C@@H](NC(=O)[C@@H](N)CC(C)C)C(C)C)C(=O)N1CCC[C@H]1C(=O)N[C@@H](Cc1ccc(O)cc1)C(=O)O [Example 2] (H-LVQPRGSRNGPGPWQGGRRKFRRQRPRLSHKGP[Nle]PY-OH)	410 pM
CCCC[C@H](NC(=O)[C@@H]1CCCN1C(=O)CNC(=O)[C@H](CCCCN)NC(=O)[C@H](Cc1c[nH]cn1)NC(=O)[C@H](CO)NC(=O)[C@H](CC(C)C)NC(=O)[C@H](CCCNC(=N)N)NC(=O)[C@@H]1CCCN1C(=O)[C@H](CCCNC(=N)N)NC(=O)[C@@H]1CCC(=O)N1)C(=O)N1CCC[C@H]1C(=O)N[C@@H](Cc1ccc(O)cc1)C(=O)O [Example 4]	190 pM
CSCC[C@H](NC(=O)[C@@H]1CCCN1C(=O)CNC(=O)[C@H](CCCCN)NC(=O)[C@H](Cc1c[nH]cn1)NC(=O)[C@H](CO)NC(=O)[C@H](CC(C)C)NC(=O)[C@H](CCCNC(=N)N)NC(=O)[C@@H]1CCCN1C(=O)[C@@H](N)CCCNC(=N)N)C(=O)N1CCC[C@H]1C(=O)N[C@@H](Cc1ccc2ccccc2c1)C(=O)O [Example 30]	280 pM
CSCC[C@H](NC(=O)[C@@H]1CCCN1C(=O)CNC(=O)[C@H](CCCCN)NC(=O)[C@H](Cc1c[nH]cn1)NC(=O)[C@H](CO)NC(=O)[C@H](CC(C)C)NC(=O)[C@H](CCCNC(=N)N)NC(=O)[C@@H]1CCCN1C(=O)[C@@H](N)CCCNC(=N)N)C(=O)N[C@@H](Cc1ccc2ccccc2c1)C(=O)O [Example 31]	300 pM
CSCC[C@H](NC(=O)[C@@H]1CCCN1C(=O)CNC(=O)[C@H](CCCCN)NC(=O)[C@H](Cc1c[nH]cn1)NC(=O)[C@H](CO)NC(=O)[C@H](CC(C)C)NC(=O)[C@H](CCCNC(=N)N)NC(=O)[C@@H]1CCCN1C(=O)[C@@H](N)CCCNC(=N)N)C(=O)N1CCC[C@H]1C(=O)N[C@@H](Cc1ccc(Cl)cc1)C(=O)O [Example 32]	200 pM
CSCC[C@H](NC(=O)[C@@H]1CCCN1C(=O)CNC(=O)[C@H](CCCCN)NC(=O)[C@H](Cc1c[nH]cn1)NC(=O)[C@H](CO)NC(=O)[C@H](CC(C)C)NC(=O)[C@H](CCCNC(=N)N)NC(=O)[C@@H]1CCCN1C(=O)[C@@H](N)CCCNC(=N)N)C(=O)N[C@@H](Cc1ccc(Cl)cc1)C(=O)O [Example 33]	100 pM
CSCC[C@H](NC(=O)[C@@H]1CCCN1C(=O)CNC(=O)[C@H](CCCCN)NC(=O)[C@H](Cc1c[nH]cn1)NC(=O)[C@H](CO)NC(=O)[C@H](CC(C)C)NC(=O)[C@H](CCCNC(=N)N)NC(=O)[C@@H]1CCCN1C(=O)[C@@H](N)CCCNC(=N)N)C(=O)N[C@@H](CC1CCCCC1)C(=O)O [Example 34]	370 pM
CC(C)C[C@H](NC(=O)[C@H](CCCNC(=N)N)NC(=O)[C@@H]1CCCN1C(=O)[C@H](CCCNC(=N)N)NC(=O)[C@@H]1CCC(=O)N1)C(=O)N[C@@H](CO)C(=O)N[C@@H](Cc1c[nH]cn1)C(=O)N[C@@H](CCCCN)C(=O)NCC(=O)N1CCC[C@H]1C(=O)N[C@@H](CC1CCCCC1)C(=O)N1CCC[C@H]1C(=O)N[C@@H](Cc1ccccc1)C(=O)O [Example 35]	340 pM
CC(C)C[C@H](NC(=O)[C@H](CCCNC(=N)N)NC(=O)[C@@H]1CCCN1C(=O)[C@H](CCCNC(=N)N)NC(=O)[C@H](CCC(N)=O)NC(=O)[C@H](CCCNC(=N)N)NC(=O)[C@@H](N)CCCNC(=N)N)C(=O)N[C@@H](CO)C(=O)N[C@@H](Cc1c[nH]cn1)C(=O)N[C@@H](CCCCN)C(=O)NCC(=O)N1CCC[C@H]1C(=O)N[C@@H](CC1CCCCC1)C(=O)O [Example 36] (H-RRQRPRLSHKGP[Cha]-OH)	160 pM
CSCC[C@H](NC(=O)[C@@H]1CCCN1C(=O)CNC(=O)[C@H](CCCCN)NC(=O)[C@H](Cc1c[nH]cn1)NC(=O)[C@H](CO)NC(=O)[C@H](CC(C)C)NC(=O)[C@H](CCCNC(=N)N)NC(=O)[C@@H]1CCCN1C(=O)[C@H](CCCNC(=N)N)NC(=O)[C@H](CCC(N)=O)NC(=O)[C@H](CCCNC(=N)N)NC(=O)[C@@H](N)CCCNC(=N)N)C(=O)N1CCC[C@H]1C(=O)N[C@@H](Cc1ccc(Cl)cc1)C(=O)O [Example 37]	140 pM
CCCC[C@H](NC(=O)[C@H](Cc1c[nH]cn1)NC(=O)[C@H](CO)NC(=O)[C@H](CC(C)C)NC(=O)[C@H](CCCNC(=N)N)NC(=O)[C@@H]1CCCN1C(=O)[C@H](CCCNC(=N)N)NC(=O)[C@H](CCC(N)=O)NC(=O)[C@H](CCCNC(=N)N)NC(=O)[C@@H](N)CCCNC(=N)N)C(=O)NCC(=O)N1CCC[C@H]1C(=O)N[C@@H](CCSC)C(=O)N1CCC[C@H]1C(=O)N[C@@H](Cc1ccc(Cl)cc1)C(=O)O [Example 38] (H-RRQRPRLSH[Nle]GPMP[Phe(4-Cl)]-OH)	350 pM
LVQPRGSRNGPGPWQGGRRKFRRQRPRLSHKGPMPF [reference compound]	520 pM

Reference: patent publication EP1116727B1, “PEPTIDE DERIVATIVE” (Takeda Chemical Industries, Ltd., priority 1998, dated 2000)
